Measurements from the supplement of paper PMC12137928.
Structures can show the parent of a compound that is named as a salt.

Test system: HCT116
Conditions: 72 h
How it was run: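 HCT116 cells were seeded at 250 per well in 1536-well plates with 5 h allowed for attachment. CellTiter-Glo luminescence was normalized against vehicle (0%) and positive control (-100%) before pattern correction. The IC50 and maximal efficacy figures derive from four-parameter Hill fits.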

Compound | IC50 cell viability (ICRF193 0 nM) | IC50 cell viability (ICRF193 200 nM)
O=C(O[C@H]1C[C@H]2CC[C@@H](C1)[N+]21CCCC1)C(O)(c1ccccc1)c1ccccc1 [Trospium chloride] | > 45.8 µM | > 45.8 µM
NC(=O)NC1NC(=O)NC1=O (configuration not stated) [Allantoin] | > 45.8 µM | > 45.8 µM
OC(CCN1CCCC1)(c1ccccc1)C1CCCCC1 (configuration not stated) [Procyclidine hydrochloride] | > 45.8 µM | > 45.8 µM
CCCC[N+]1(C)[C@@H]2C[C@@H](OC(=O)[C@H](CO)c3ccccc3)C[C@H]1[C@@H]1O[C@@H]12 (some centres not stated) [Butylscopolamine bromide] | > 45.8 µM | > 45.8 µM
CC(C)(C)CC(C)(C)c1ccc(O)cc1 [4-(1,1,3,3-Tetramethylbutyl)phenol] | > 45.8 µM | > 45.8 µM
CC(C)(O)C(Cl)(Cl)Cl [1,1,1-Trichloro-2-methyl-2-propanol] | > 45.8 µM | > 45.8 µM
Oc1ccc2c3c1O[C@H]1[C@@H](O)CC[C@@]4(O)[C@@H](C2)N(CC2CCC2)CC[C@]314 [Nalbuphine hydrochloride] | > 45.8 µM | > 45.8 µM
O=C(O)c1ccccc1S [2-Thiosalicylic acid] | > 45.8 µM | > 45.8 µM
CC(C)OC(=O)OCOP(=O)(CO[C@H](C)Cn1cnc2c(N)ncnc21)OCOC(=O)OC(C)C [Tenofovir disoproxil fumarate] | > 45.8 µM | > 45.8 µM
CCOC(=O)OCC/C(SC(=O)OCC)=C(\C)N(C=O)Cc1cnc(C)nc1N [Dicethiamine hydrochloride] | > 45.8 µM | > 45.8 µM
OC[C@H]1O[C@@](CO)(O[C@H]2O[C@H](CO)[C@@H](O)[C@H](O)[C@H]2O)[C@@H](O)[C@@H]1O [Sucrose] | > 45.8 µM | > 45.8 µM
FC(F)(F)C(F)(F)C(F)(F)C(F)(F)C(F)(F)C(F)(F)F [Perflexane] | > 45.8 µM | > 45.8 µM
CO[C@@]1(NC(=O)CSC(F)F)C(=O)N2C(C(=O)O)=C(CSc3nnnn3CCO)CO[C@@H]21 [Flomoxef] | > 45.8 µM | > 45.8 µM
CC[C@H]1OC(=O)C[C@@H](O)[C@H](C)[C@@H](O[C@@H]2O[C@H](C)[C@@H](O[C@H]3C[C@@](C)(O)[C@@H](O)[C@H](C)O3)[C@H](N(C)C)[C@H]2O)[C@@H](CC=O)C[C@@H](C)C(=O)/C=C/C(C)=C/[C@@H]1CO[C@@H]1O[C@H](C)[C@@H](O)[C@@H](OC)[C@H]1OC [TYLOSIN TARTRATE] | > 45.8 µM | > 45.8 µM
O[C@@H]([C@H](O)[C@H](O)CBr)[C@H](O)CBr [Dibromomannitol] | > 45.8 µM | > 45.8 µM
COC1CC(=C(c2cccs2)c2cccs2)C[N+](C)(C)C1 (configuration not stated) [Timepidium bromide] | > 45.8 µM | > 45.8 µM
CCOC(=O)n1ccn(C)c1=S [Carbimazole] | > 45.8 µM | > 45.8 µM
CCOC(=O)C1(c2ccccc2)CCN(CCc2ccc(N)cc2)CC1 [Anileridine] | > 45.8 µM | > 45.8 µM
c1ccc2c(c1)Nc1ccccc1S2 [Phenothiazine] | > 45.8 µM | > 45.8 µM

Results, then the molecule that gave them:

IC50 cell viability (ICRF193 0 nM) | IC50 cell viability (ICRF193 200 nM) | Compound
> 45.8 µM | > 45.8 µM | COc1cc(C(=O)NCc2ccc(OCCN(C)C)cc2)cc(OC)c1OC [Trimethobenzamide hydrochloride]
> 45.8 µM | > 45.8 µM | OC(Cn1cncn1)(Cn1cncn1)c1ccc(F)cc1F [Fluconazole]
> 45.8 µM | > 45.8 µM | CCOC(=O)[C@H](CCc1ccccc1)N[C@@H](C)C(=O)N(CC(=O)O)C1Cc2ccccc2C1 [Delapril hydrochloride]
> 45.8 µM | > 45.8 µM | COCCOc1cnc(NS(=O)(=O)c2ccccc2)nc1 [Glymidine sodium]
> 45.8 µM | > 45.8 µM | CCN(CC)CC(=O)Nc1c(C)cccc1C(=O)OC [Tolycaine]
> 45.8 µM | > 45.8 µM | c1ccc2ccccc2c1 [NAPHTHALENE, ZONE REFINED]
> 45.8 µM | > 45.8 µM | O=C(Nc1cccc(C2=NCCN2)c1)Nc1cccc(C2=NCCN2)c1 [Imidocarb dipropionate]
> 45.8 µM | > 45.8 µM | CNCc1ccc(-c2[nH]c3cc(F)cc4c3c2CCNC4=O)cc1 [Rucaparib]
> 45.8 µM | > 45.8 µM | Cc1nc(NS(=O)(=O)c2ccc(N)cc2)nc(C)c1Br [Sulfabromomethazine]
> 45.8 µM | > 45.8 µM | Nc1nc(=O)[nH]cc1F [Flucytosine]
> 45.8 µM | > 45.8 µM | CC(=O)OCC1=C(C(=O)O)N2C(=O)[C@@H](NC(=O)CSc3ccncc3)[C@H]2SC1 [Cephapirin sodium]
> 45.8 µM | > 45.8 µM | CC1=C(C/C=C(\C)CCC[C@H](C)CCC[C@H](C)CCCC(C)C)C(=O)c2ccccc2C1=O [Phytonadione]
